In patent publication US20050176826A1, “Use of asc-1 inhibitors to treat neurological and psychiatric disorders” (H. Lundbeck A/S, priority 2002, published 2005):

Key:
[1] = biological target: T1, D-serine-sensitive Na+-independent transporter in rat cortical membranes (Rattus norvegicus, UniProt P63116); assay: Na+-independent [3H]D-serine uptake into rat cortical membranes (synaptosomes); assay type: biochemical; details: for inhibition of [3H]D-serine uptake (in words): rat cortical synaptosomes
T1 construct: from tissue; host or cells: rat cerebral cortex membranes (P2 synaptosomes), male Wistar rats
T1 sequence (P63116 1-530): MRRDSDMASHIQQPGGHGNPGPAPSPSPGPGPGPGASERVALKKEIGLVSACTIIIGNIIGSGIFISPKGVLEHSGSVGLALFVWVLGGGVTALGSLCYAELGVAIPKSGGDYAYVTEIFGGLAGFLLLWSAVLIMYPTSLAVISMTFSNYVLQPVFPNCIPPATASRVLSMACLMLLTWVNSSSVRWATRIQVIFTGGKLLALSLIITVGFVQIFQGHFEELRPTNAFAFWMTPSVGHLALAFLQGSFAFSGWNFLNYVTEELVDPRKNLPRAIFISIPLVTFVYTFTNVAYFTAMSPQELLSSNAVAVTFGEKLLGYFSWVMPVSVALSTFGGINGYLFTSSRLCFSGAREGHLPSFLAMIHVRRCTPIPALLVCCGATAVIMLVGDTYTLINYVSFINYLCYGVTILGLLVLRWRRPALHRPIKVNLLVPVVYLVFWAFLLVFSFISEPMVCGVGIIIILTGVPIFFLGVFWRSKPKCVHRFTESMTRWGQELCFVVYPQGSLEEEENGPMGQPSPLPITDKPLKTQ
T1 sequence (Q794F9 1-527 partner): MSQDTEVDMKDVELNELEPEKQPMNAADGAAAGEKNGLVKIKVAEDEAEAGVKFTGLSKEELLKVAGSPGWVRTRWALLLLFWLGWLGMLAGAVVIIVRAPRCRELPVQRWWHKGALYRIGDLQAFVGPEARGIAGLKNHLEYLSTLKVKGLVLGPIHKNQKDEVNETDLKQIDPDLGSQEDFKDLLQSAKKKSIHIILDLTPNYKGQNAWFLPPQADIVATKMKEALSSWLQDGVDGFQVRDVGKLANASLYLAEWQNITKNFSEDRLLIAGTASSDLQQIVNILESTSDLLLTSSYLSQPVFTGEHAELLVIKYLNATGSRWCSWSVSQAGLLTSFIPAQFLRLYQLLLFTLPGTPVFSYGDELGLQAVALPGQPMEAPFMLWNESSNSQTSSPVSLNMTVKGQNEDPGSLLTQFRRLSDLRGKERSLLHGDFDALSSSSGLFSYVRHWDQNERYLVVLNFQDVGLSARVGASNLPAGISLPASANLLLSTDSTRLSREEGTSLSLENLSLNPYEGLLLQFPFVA
Method: (§1) Into cortical membranes: Cortex from male Wistar rats (150-200 g) was homogenized in 0.40 M sucrose and centrifuged at 1000×g for 10 min. […] Test compounds and tissue (1 mg orig. tissue/well) were added to 96 well plates and incubated with [^3H]-D-serine (specific activity=26.8 Ci/mmol, PerkinElmer, Cambridge, U.K.) (100 nM final concentration) for 5 min at 25° C. Samples were filtered on Unifilter GF/B glass fiber (Packard Biosciences, Meriden, Conn., USA) and washed with 3×0.25 mL assay buffer. Measurements of [^3H]-D-serine uptake into whole HEK293 cells expressing human asc-1 were performed in 96 well plates with similar conditions except that the cells were incubated for 15 min with radioligand and washed by dipping twice in cold assay buffer following incubation with radioligand. Accumulated radioactivity was extracted from the cells by adding 200 μL scintillation fluid/well (Ultima Gold, Packard Biosciences) and the plates were counted in a Microplates Scintillation Counter (Packard Biosciences). The D-serine uptake in samples containing test compounds was compared to controls without added compound or controls where transport via the asc-1 was inhibited by addition of e.g. 30 mM L-alanine.

human asc-1 = biological target: T2, human asc-1 (Homo sapiens, UniProt Q9NS82); assay: [3H]D-serine uptake into HEK293 cells expressing human asc-1; assay type: cell-based; details: for inhibition of [3H]D-serine uptake (in words): HEK293 cells expressing the cloned asc-1
T2 construct: expressed in transfected cells; host or cells: HEK293 (ATCC CRL 1573), transient, vector pCI/neo
T2 sequence (Q9NS82 1-523): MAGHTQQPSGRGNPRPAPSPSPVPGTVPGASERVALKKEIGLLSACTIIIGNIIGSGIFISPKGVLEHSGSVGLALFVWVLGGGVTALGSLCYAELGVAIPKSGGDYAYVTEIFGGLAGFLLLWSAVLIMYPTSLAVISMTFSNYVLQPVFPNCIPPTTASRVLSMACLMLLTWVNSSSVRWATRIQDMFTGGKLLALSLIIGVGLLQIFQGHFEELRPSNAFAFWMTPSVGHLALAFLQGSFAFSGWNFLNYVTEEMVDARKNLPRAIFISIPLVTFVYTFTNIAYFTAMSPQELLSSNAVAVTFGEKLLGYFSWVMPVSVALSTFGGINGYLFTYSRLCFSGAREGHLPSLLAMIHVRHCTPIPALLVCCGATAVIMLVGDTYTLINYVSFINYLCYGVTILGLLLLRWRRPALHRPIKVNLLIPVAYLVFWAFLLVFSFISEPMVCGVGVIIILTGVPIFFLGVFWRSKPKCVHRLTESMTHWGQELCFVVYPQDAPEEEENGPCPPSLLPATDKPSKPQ
Method: Uptake was determined 2-4 days after the transfection.
as §1

NMDA receptor = NMDA receptor (Homo sapiens, UniProt Q05586); details: versus glycine; cited from earlier work

block of [3H]D-serine uptake into rat cortical membranes ([1]; rat cortical membranes) | block of uptake via the asc system, including asc-1 (human asc-1; 30 mM) | Structure (SMILES) | inhibition of [3H]D-serine uptake (in words) [1] | inhibition of [3H]D-serine uptake (in words) (human asc-1) | co-agonist potency relative to glycine at the allosteric site on the NMDA receptor (NMDA receptor)
 |  | N[C@@H](CS)C(=O)O [L-cysteine] | effective inhibition | effective inhibition | 
 |  | NCCCC[C@H](N)C(=O)O [L-lysine] | Inactive | Inactive | 
 |  | C[C@@H](O)[C@H](N)C(=O)O [L-threonine] | effective inhibition | effective inhibition | 
 |  | N[C@@H](CCC(=O)O)C(=O)O [L-glutamate] | Inactive | Inactive | 
 |  | N=C(N)NCCC[C@H](N)C(=O)O [L-arginine] | Inactive | Inactive | 
 |  | O=C(O)[C@@H]1CCCN1 [L-proline] | Inactive | Inactive | 
 |  | N[C@H](CO)C(=O)O [D-serine] |  |  | 3-4 fold
 |  | CC(C)C[C@H](N)C(=O)O [L-leucine] | Less effective, but significant inhibition | Less effective, but significant inhibition | 
 |  | NC(=O)C[C@H](N)C(=O)O [L-asparagine] | Less effective, but significant inhibition | Less effective, but significant inhibition | 
 |  | CSCC[C@H](N)C(=O)O [L-methionine] | Less effective, but significant inhibition | Less effective, but significant inhibition | 
 |  | CC(C)[C@H](N)C(=O)O [L-valine] | Less effective, but significant inhibition | Less effective, but significant inhibition | 
 |  | N[C@@H](CC(=O)O)C(=O)O [L-aspartate] | Inactive | Inactive | 
 |  | CC[C@H](C)[C@H](N)C(=O)O [L-isoleucine] | Less effective, but significant inhibition | Less effective, but significant inhibition | 
 |  | N[C@@H](Cc1ccccc1)C(=O)O [L-phenylalanine] | Less effective, but significant inhibition | Less effective, but significant inhibition | 
 |  | N[C@@H](Cc1ccc(O)cc1)C(=O)O [L-tyrosine] | Less effective, but significant inhibition | Less effective, but significant inhibition | 
completely blocks | completely block | C[C@H](N)C(=O)O [L-alanine] | effective inhibition | effective inhibition | 
 |  | NCC(=O)O [L-glycine] | effective inhibition | effective inhibition | 
 |  | N[C@@H](CSSC[C@H](N)C(=O)O)C(=O)O [L-cystine] | Inactive | Inactive | 
 |  | N[C@@H](Cc1c[nH]cn1)C(=O)O [L-histidine] | Less effective, but significant inhibition | Less effective, but significant inhibition | 
 |  | NC(=O)CC[C@H](N)C(=O)O [L-glutamine] | Inactive | Inactive | 
 |  | N[C@@H](CO)C(=O)O [L-serine] | effective inhibition | effective inhibition | 
